Results taken from ChEMBL document CHEMBL3885881, “DrugMatrix”.

Species on record: Rattus norvegicus
Assay: DrugMatrix - Regimen: Daily Repeat
Type: toxicity, organism-based, Sprague-Dawley
Design: regimen Daily Repeat, gender Male, age 6-8 weeks
Conditions: in vivo, po, 0 mg/kg, route oral GAVAGE, dose level Control, vehicle .5 % CMC; for ABSOLUTE BASOPHIL / ABSOLUTE EOSINOPHIL / ABSOLUTE LYMPHOCYTE / ABSOLUTE MONOCYTE / ABSOLUTE SEGMENTED NEUTROPHIL / BASOPHIL / EOSINOPHIL / ERYTHROCYTE COUNT / HEMATOCRIT / HEMOGLOBIN / LEUKOCYTE COUNT / LYMPHOCYTE / MEAN CORPUSCULAR HEMOGLOBIN / MEAN CORPUSCULAR HEMOGLOBIN CONCENTRATION / MEAN CORPUSCULAR VOLUME / MONOCYTE / NEUTROPHIL / NUCLEATED RED BLOOD CELLS / PLATELET COUNT: tissue Blood; for ALANINE AMINOTRANSFERASE / ALBUMIN / ALKALINE PHOSPHATASE / ASPARTATE AMINOTRANSFERASE / BLOOD UREA NITROGEN / CARBON DIOXIDE / CHLORIDE / CHOLESTEROL / CREATININE / GLUCOSE / LACTATE DEHYDROGENASE / LIPASE / PHOSPHORUS / POTASSIUM / SODIUM / TOTAL BILIRUBIN / TOTAL PROTEIN / URIC ACID: tissue Plasma

ClC(Cl)Br [BROMODICHLOROMETHANE]
ABSOLUTE BASOPHIL (72 h, time 3 day): 0 CELLS/uL
ABSOLUTE EOSINOPHIL (72 h, time 3 day): 279.83 CELLS/uL
ABSOLUTE LYMPHOCYTE (72 h, time 3 day): 13152.5 CELLS/uL
ABSOLUTE MONOCYTE (72 h, time 3 day): 1013.83 CELLS/uL
ABSOLUTE SEGMENTED NEUTROPHIL (72 h, time 3 day): 2420.5 CELLS/uL
BASOPHIL (72 h, time 3 day): 0%
EOSINOPHIL (72 h, time 3 day): 1.67%
ERYTHROCYTE COUNT (72 h, time 3 day): 5.26 x10E6/uL
HEMATOCRIT (72 h, time 3 day): 32.22%
HEMOGLOBIN (72 h, time 3 day): 12.02 G/DL
LEUKOCYTE COUNT (72 h, time 3 day): 16.87 x10E3/uL
LYMPHOCYTE (72 h, time 3 day): 77.83%
MEAN CORPUSCULAR HEMOGLOBIN (72 h, time 3 day): 22.93 pg
MEAN CORPUSCULAR HEMOGLOBIN CONCENTRATION (72 h, time 3 day): 37.32 G/DL
MEAN CORPUSCULAR VOLUME (72 h, time 3 day): 61.4 fL
MONOCYTE (72 h, time 3 day): 6%
NEUTROPHIL (72 h, time 3 day): 14.5%
NUCLEATED RED BLOOD CELLS (72 h, time 3 day): 0 /100WBC
PLATELET COUNT (72 h, time 3 day): 1122.17 x10E3/uL
ALANINE AMINOTRANSFERASE (72 h, time 3 day): 55.67 u/L
ALBUMIN (72 h, time 3 day): 4.35 G/DL
ALKALINE PHOSPHATASE (72 h, time 3 day): 362.67 u/L
ASPARTATE AMINOTRANSFERASE (72 h, time 3 day): 96 u/L
BLOOD UREA NITROGEN (72 h, time 3 day): 18 mg/dL
CARBON DIOXIDE (72 h, time 3 day): 27.5 mmol/L
CHLORIDE (72 h, time 3 day): 100.17 MEQ/L
CHOLESTEROL (72 h, time 3 day): 74.5 mg/dL
CREATININE (72 h, time 3 day): 0.17 mg/dL
GLUCOSE (72 h, time 3 day): 141.67 mg/dL
LACTATE DEHYDROGENASE (72 h, time 3 day): 682.5 u/L
LIPASE (72 h, time 3 day): 10 u/L
PHOSPHORUS (72 h, time 3 day): 11.5 mg/dL
POTASSIUM (72 h, time 3 day): 6.41 MEQ/L
SODIUM (72 h, time 3 day): 141.2 MEQ/L
TOTAL BILIRUBIN (72 h, time 3 day): 0.18 mg/dL
TOTAL PROTEIN (72 h, time 3 day): 5.88 G/DL
URIC ACID (72 h, time 3 day): 1.4 mg/dL
ABSOLUTE BASOPHIL (120 h, time 5 day): 0 CELLS/uL
ABSOLUTE EOSINOPHIL (120 h, time 5 day): 18.5 CELLS/uL
ABSOLUTE LYMPHOCYTE (120 h, time 5 day): 8146.83 CELLS/uL
ABSOLUTE MONOCYTE (120 h, time 5 day): 204.83 CELLS/uL
ABSOLUTE SEGMENTED NEUTROPHIL (120 h, time 5 day): 1329.83 CELLS/uL
BASOPHIL (120 h, time 5 day): 0%
EOSINOPHIL (120 h, time 5 day): 0.17%
ERYTHROCYTE COUNT (120 h, time 5 day): 5.37 x10E6/uL
HEMATOCRIT (120 h, time 5 day): 33.17%
HEMOGLOBIN (120 h, time 5 day): 12.07 G/DL
LEUKOCYTE COUNT (120 h, time 5 day): 9.7 x10E3/uL
LYMPHOCYTE (120 h, time 5 day): 85.33%
MEAN CORPUSCULAR HEMOGLOBIN (120 h, time 5 day): 22.52 pg
MEAN CORPUSCULAR HEMOGLOBIN CONCENTRATION (120 h, time 5 day): 36.42 G/DL
MEAN CORPUSCULAR VOLUME (120 h, time 5 day): 61.78 fL
MONOCYTE (120 h, time 5 day): 1.83%
NEUTROPHIL (120 h, time 5 day): 12.67%
NUCLEATED RED BLOOD CELLS (120 h, time 5 day): 0 /100WBC
PLATELET COUNT (120 h, time 5 day): 907.5 x10E3/uL
ALANINE AMINOTRANSFERASE (120 h, time 5 day): 58.5 u/L
ALBUMIN (120 h, time 5 day): 4.4 G/DL
ALKALINE PHOSPHATASE (120 h, time 5 day): 377.67 u/L
ASPARTATE AMINOTRANSFERASE (120 h, time 5 day): 140.33 u/L
BLOOD UREA NITROGEN (120 h, time 5 day): 15.33 mg/dL
CARBON DIOXIDE (120 h, time 5 day): 32.17 mmol/L
CHLORIDE (120 h, time 5 day): 100 MEQ/L
CHOLESTEROL (120 h, time 5 day): 71.83 mg/dL
CREATININE (120 h, time 5 day): 0.18 mg/dL
GLUCOSE (120 h, time 5 day): 185 mg/dL
LACTATE DEHYDROGENASE (120 h, time 5 day): 241.5 u/L
LIPASE (120 h, time 5 day): 9.5 u/L
PHOSPHORUS (120 h, time 5 day): 13.02 mg/dL
POTASSIUM (120 h, time 5 day): 6.45 MEQ/L
SODIUM (120 h, time 5 day): 143.45 MEQ/L
TOTAL BILIRUBIN (120 h, time 5 day): 0.22 mg/dL
TOTAL PROTEIN (120 h, time 5 day): 6.1 G/DL
URIC ACID (120 h, time 5 day): 1 mg/dL
ABSOLUTE BASOPHIL ([…], time 14 day): 0 CELLS/uL
ABSOLUTE EOSINOPHIL ([…], time 14 day): 117.17 CELLS/uL
ABSOLUTE LYMPHOCYTE ([…], time 14 day): 13562 CELLS/uL
ABSOLUTE MONOCYTE ([…], time 14 day): 534.83 CELLS/uL
ABSOLUTE SEGMENTED NEUTROPHIL ([…], time 14 day): 2486 CELLS/uL
BASOPHIL ([…], time 14 day): 0%
EOSINOPHIL ([…], time 14 day): 0.83%
ERYTHROCYTE COUNT ([…], time 14 day): 6.14 x10E6/uL
HEMATOCRIT ([…], time 14 day): 36.87%
HEMOGLOBIN ([…], time 14 day): 13.87 G/DL
LEUKOCYTE COUNT ([…], time 14 day): 16.7 x10E3/uL
LYMPHOCYTE ([…], time 14 day): 81%
MEAN CORPUSCULAR HEMOGLOBIN ([…], time 14 day): 22.63 pg
MEAN CORPUSCULAR HEMOGLOBIN CONCENTRATION ([…], time 14 day): 37.62 G/DL
MEAN CORPUSCULAR VOLUME ([…], time 14 day): 60.15 fL
MONOCYTE ([…], time 14 day): 3.17%
NEUTROPHIL ([…], time 14 day): 15%
NUCLEATED RED BLOOD CELLS ([…], time 14 day): 0 /100WBC
PLATELET COUNT ([…], time 14 day): 974.83 x10E3/uL
ALANINE AMINOTRANSFERASE ([…], time 14 day): 52.33 u/L
ALBUMIN ([…], time 14 day): 4.48 G/DL
ALKALINE PHOSPHATASE ([…], time 14 day): 346.17 u/L
ASPARTATE AMINOTRANSFERASE ([…], time 14 day): 81 u/L
BLOOD UREA NITROGEN ([…], time 14 day): 15.67 mg/dL
CARBON DIOXIDE ([…], time 14 day): 34.33 mmol/L
CHLORIDE ([…], time 14 day): 100.17 MEQ/L
CHOLESTEROL ([…], time 14 day): 70.83 mg/dL
CREATININE ([…], time 14 day): 0.22 mg/dL
GLUCOSE ([…], time 14 day): 141.17 mg/dL
LACTATE DEHYDROGENASE ([…], time 14 day): 121.33 u/L
LIPASE ([…], time 14 day): 8.33 u/L
PHOSPHORUS ([…], time 14 day): 9.97 mg/dL
POTASSIUM ([…], time 14 day): 6.4 MEQ/L
SODIUM ([…], time 14 day): 143.72 MEQ/L
TOTAL BILIRUBIN ([…], time 14 day): 0.22 mg/dL
TOTAL PROTEIN ([…], time 14 day): 6.45 G/DL
URIC ACID ([…], time 14 day): 1.25 mg/dL
